Data: ChEMBL document CHEMBL4680163, “Discovery of potent epidermal growth factor receptor (EGFR) degraders by proteolysis targeting chimera (PROTAC)” (Eur J Med Chem, 2020)
Values belong to the compound of their own block, whether it stands above or below them.

Experiments:
HCC827 [1] = assay: Antiproliferative activity against human HCC827 cells harboring EGFRDel19 mutant assessed as reduction in cell viability incubated for 72 hrs by MTT assay; format: functional, cell-based; details: HCC827, 72 h
A-431 = assay: Antiproliferative activity against human A-431 cells harboring EGFR assessed as reduction in cell viability incubated for 72 hrs by MTT assay; format: functional, cell-based; details: A-431, 72 h
A549 = assay: Antiproliferative activity against human A549 cells harboring EGFR assessed as reduction in cell viability incubated for 72 hrs by MTT assay; format: functional, cell-based; details: A549, 72 h
NCI-H1975 = assay: Antiproliferative activity against human NCI-H1975 cells harboring EGFR L858/T790M mutant assessed as reduction in cell viability incubated for 72 hrs by MTT assay; format: functional, cell-based; details: NCI-H1975, 72 h
HCC827 [2] = assay: Induction of apoptosis in human HCC827 cells assessed as necrotic cells at 1 uM incubated for 32 hrs by annexin V-FITC and PI staining based flow cytometry analysis (reference value: 7.12 %); format: functional
HCC827 [3] = assay: Induction of cell cycle arrest in human HCC827 cells assessed as accumulation in G1 phase at 0.1 uM incubated for 32 hrs by PI staining based flow cytometry analysis (reference value: 50.48 %); format: functional
HCC827 [4] = assay: Induction of apoptosis in human HCC827 cells assessed as viable cells at 0.1 uM incubated for 32 hrs by annexin V-FITC and PI staining based flow cytometry analysis (reference value: 76.79 %); format: functional; details: read-out: Activity
HCC827 [5] = assay: Induction of cell cycle arrest in human HCC827 cells assessed as accumulation in G2 phase at 1 uM incubated for 32 hrs by PI staining based flow cytometry analysis (reference value: 8.25 %); format: functional
HCC827 [6] = assay: Induction of cell cycle arrest in human HCC827 cells assessed as accumulation in S phase at 1 uM incubated for 32 hrs by PI staining based flow cytometry analysis (reference value: 41.26 %); format: functional
HCC827 [7] = assay: Induction of cell cycle arrest in human HCC827 cells assessed as accumulation in S phase at 0.1 uM incubated for 32 hrs by PI staining based flow cytometry analysis (reference value: 41.26 %); format: functional
HCC827 [8] = assay: Induction of apoptosis in human HCC827 cells assessed as necrotic cells at 0.1 uM incubated for 32 hrs by annexin V-FITC and PI staining based flow cytometry analysis (reference value: 6.68 %); format: functional
HCC827 [9] = assay: Induction of cell cycle arrest in human HCC827 cells assessed as accumulation in G1 phase at 1 uM incubated for 32 hrs by PI staining based flow cytometry analysis (reference value: 50.48 %); format: functional
HCC827 [10] = assay: Induction of apoptosis in human HCC827 cells assessed as early apoptotic cells at 1 uM incubated for 32 hrs by annexin V-FITC and PI staining based flow cytometry analysis (reference value: 2.72%); format: functional
HCC827 [11] = assay: Induction of apoptosis in human HCC827 cells assessed as late apoptotic cells at 0.1 uM incubated for 32 hrs by annexin V-FITC and PI staining based flow cytometry analysis (reference value: 14.23 %); format: functional
HCC827 [12] = assay: Induction of cell cycle arrest in human HCC827 cells assessed as accumulation in G2 phase at 0.1 uM incubated for 32 hrs by PI staining based flow cytometry analysis (reference value: 8.25 %); format: functional
HCC827 [13] = assay: Induction of apoptosis in human HCC827 cells assessed as early apoptotic cells at 0.1 uM incubated for 32 hrs by annexin V-FITC and PI staining based flow cytometry analysis (reference value: 2.31 %); format: functional
HCC827 [14] = assay: Induction of apoptosis in human HCC827 cells assessed as viable cells at 1 uM incubated for 32 hrs by annexin V-FITC and PI staining based flow cytometry analysis (reference value: 72.15 %); format: functional; details: read-out: Activity
HCC827 [15] = assay: Induction of apoptosis in human HCC827 cells assessed as late apoptotic cells at 1 uM incubated for 32 hrs by annexin V-FITC and PI staining based flow cytometry analysis (reference value: 18.02%); format: functional

IC50 (HCC827 [1]): 1210 nM
Compound: O=C1CCC(N2Cc3c(NC(=O)CCCCCCN4CCN(c5ccc(Nc6cc7c(N8CCC(CO)CC8)nc(Nc8ccc(F)cc8)nc7cn6)nc5)CC4)cccc3C2=O)C(=O)N1 (centres undefined)

IC50 (HCC827 [1]): 4630 nM | IC50 (A-431): > 10000 nM
Compound: CN(C)C1CCN(c2ccc(Nc3cc4c(N5CCN(CC(=O)NCCC(=O)Nc6cccc7c6CN(C6CCC(=O)NC6=O)C7=O)CC5)nc(Nc5ccc(F)cc5)nc4cn3)nc2)CC1 (centres undefined)

IC50 (A549): 6390 nM | IC50 (HCC827 [1]): 710 nM | IC50 (NCI-H1975): 2640 nM | IC50 (A-431): 2320 nM
Compound: Cc1ncsc1-c1ccc(CNC(=O)[C@@H]2C[C@@H](O)CN2C(=O)[C@@H](NCCOCCOCCOCCN2CCN(c3ccc(Nc4cc5c(N6CCC(CO)CC6)nc(Nc6ccc(F)cc6)nc5cn4)nc3)CC2)C(C)(C)C)cc1

Compound: C=CC(=O)Nc1cc(Nc2nccc(-c3cn(C)c4ccccc34)n2)c(OC)cc1N(C)CCN(C)C [OSIMERTINIB]
Activity (HCC827 [2]): 10.32% | Activity (HCC827 [3]): 82.45% | viability at 0.1 µM (HCC827 [4]): 23.8% | Activity (HCC827 [5]): 9.71% | Activity (HCC827 [6]): 10.16% | IC50 (A549): 900 nM | Activity (HCC827 [7]): 9.29% | Activity (HCC827 [8]): 15.24% | IC50 (HCC827 [1]): 36 nM | Activity (HCC827 [9]): 80.12% | Activity (HCC827 [10]): 6.11% | IC50 (NCI-H1975): […] | Activity (HCC827 [11]): 55.86% | Activity (HCC827 [12]): 8.26% | Activity (HCC827 [13]): 5.07% | viability at 1 µM (HCC827 [14]): 24% | Activity (HCC827 [15]): 59.59% | IC50 (A-431): […]

IC50 (HCC827 [1]): 1450 nM
Compound: CN(C)C1CCN(c2ccc(Nc3cc4c(N5CCN(CCCCCCCC(=O)Nc6cccc7c6CN(C6CCC(=O)NC6=O)C7=O)CC5)nc(Nc5ccc(F)cc5)nc4cn3)nc2)CC1 (centres undefined)

IC50 (HCC827 [1]): > 10000 nM
Compound: Cc1ncsc1-c1ccc(CNC(=O)[C@@H]2C[C@@H](O)CN2C(=O)[C@@H](N)C(C)(C)C)cc1

IC50 (HCC827 [1]): > 10000 nM
Compound: Nc1cccc2c1CN(C1CCC(=O)NC1=O)C2=O (centres undefined) [LENALIDOMIDE]

IC50 (HCC827 [1]): 2760 nM
Compound: O=C(CN1CCN(c2ccc(Nc3cc4c(N5CCC(CO)CC5)nc(Nc5ccc(F)cc5)nc4cn3)nc2)CC1)NCCC(=O)Nc1cccc2c1CN(C1CCC(=O)NC1=O)C2=O (centres undefined)
